For assay [1], the target named is T1, Poly [ADP-ribose] polymerase 2 (Homo sapiens, UniProt Q9UGN5). Put plainly: Inhibition of human PARP2 using NAD+ as substrate at 5 nM incubated for 1 hr by ELISA relative to control. In general terms: ELISA stands for enzyme-linked immunosorbent assay.
Assay [2] addresses T2, Poly [ADP-ribose] polymerase 1 (Homo sapiens, UniProt P09874). Put plainly: Inhibition of human PARP1 using NAD+ as substrate at 5 nM incubated for 1 hr by ELISA relative to control.
The test system of another assay is A549. Put plainly: Antiproliferative activity against human A549 cells assessed as inhibition of cell growth incubated for 48 hrs by MTT assay. As to conditions: A549, 48 h. Format: functional, cell-based. Background: Tetrazolium dyes change colour on reduction, which living cells bring about.
A further assay concerns MX1. Put plainly: Antiproliferative activity against human BRCA mutant MX1 cells assessed as inhibition of cell growth incubated for 48 hrs by MTT assay. To be noted: MX1, 48 h. It is filed as functional, cell-based.
A further assay has as its system MCF7. Put plainly: Antiproliferative activity against human MCF7 cells assessed as inhibition of cell growth incubated for 48 hrs by MTT assay. Format: functional, cell-based. As to conditions: MCF7, 48 h.
A further assay concerns Mus musculus. Put plainly: In vivo inhibition of PARP1 in athymic BALB/c mouse xenografted with human BRCA1 mutant MDA-MB-436 cells assessed as prevention of PAR formation 50 mg/kg/day, po measured after 48 hrs by Western blot analysis. It is filed as functional, organism-based.
The target of assay [3] is T2, Poly [ADP-ribose] polymerase 1. Put plainly: Inhibition of human PARP1 using NAD+ as substrate incubated for 1 hr by ELISA.
The species named for the next assay is Homo sapiens. Put plainly: Selectivity index, ratio of IC50 for human PARP2 to IC50 for human PARP1.
Assay [4] concerns the target T1, Poly [ADP-ribose] polymerase 2. Put plainly: Inhibition of human PARP2 using NAD+ as substrate incubated for 1 hr by ELISA.

The structures appear in SMILES notation. Activity calls are given as the source filed them. The rule behind the calls is not given here.

By inhibition is commonly meant the percentage by which the read-out fell short of the control. Broadly, the IC50 is the concentration at which inhibition is half-maximal.

T2 sequence (P09874 whole entry): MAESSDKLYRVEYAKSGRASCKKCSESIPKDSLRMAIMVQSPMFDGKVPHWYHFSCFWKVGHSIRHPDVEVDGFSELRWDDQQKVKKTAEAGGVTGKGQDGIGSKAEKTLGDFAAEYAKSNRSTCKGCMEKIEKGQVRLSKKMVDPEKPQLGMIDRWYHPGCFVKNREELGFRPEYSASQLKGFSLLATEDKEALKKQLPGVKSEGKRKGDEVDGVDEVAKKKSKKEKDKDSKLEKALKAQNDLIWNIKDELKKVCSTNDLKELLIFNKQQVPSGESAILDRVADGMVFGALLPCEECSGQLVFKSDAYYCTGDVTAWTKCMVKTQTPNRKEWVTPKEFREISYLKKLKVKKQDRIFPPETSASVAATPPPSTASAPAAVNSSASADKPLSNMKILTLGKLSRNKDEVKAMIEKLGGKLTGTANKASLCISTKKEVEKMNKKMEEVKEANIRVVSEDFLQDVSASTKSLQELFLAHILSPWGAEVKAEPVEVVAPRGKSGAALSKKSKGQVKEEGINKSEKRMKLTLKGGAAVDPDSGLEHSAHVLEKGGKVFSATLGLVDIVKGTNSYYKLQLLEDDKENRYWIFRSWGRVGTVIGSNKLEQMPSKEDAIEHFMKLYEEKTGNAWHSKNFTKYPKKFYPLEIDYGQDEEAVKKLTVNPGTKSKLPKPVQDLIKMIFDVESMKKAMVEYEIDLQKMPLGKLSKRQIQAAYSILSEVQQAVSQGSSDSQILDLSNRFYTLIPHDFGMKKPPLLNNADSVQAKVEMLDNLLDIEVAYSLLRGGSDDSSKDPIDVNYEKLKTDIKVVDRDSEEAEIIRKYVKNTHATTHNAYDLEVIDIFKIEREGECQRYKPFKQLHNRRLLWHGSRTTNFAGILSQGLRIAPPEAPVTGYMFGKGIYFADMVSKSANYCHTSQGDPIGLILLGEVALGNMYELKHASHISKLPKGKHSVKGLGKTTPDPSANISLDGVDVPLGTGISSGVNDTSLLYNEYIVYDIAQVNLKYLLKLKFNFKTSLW
T1 sequence (Q9UGN5 whole entry): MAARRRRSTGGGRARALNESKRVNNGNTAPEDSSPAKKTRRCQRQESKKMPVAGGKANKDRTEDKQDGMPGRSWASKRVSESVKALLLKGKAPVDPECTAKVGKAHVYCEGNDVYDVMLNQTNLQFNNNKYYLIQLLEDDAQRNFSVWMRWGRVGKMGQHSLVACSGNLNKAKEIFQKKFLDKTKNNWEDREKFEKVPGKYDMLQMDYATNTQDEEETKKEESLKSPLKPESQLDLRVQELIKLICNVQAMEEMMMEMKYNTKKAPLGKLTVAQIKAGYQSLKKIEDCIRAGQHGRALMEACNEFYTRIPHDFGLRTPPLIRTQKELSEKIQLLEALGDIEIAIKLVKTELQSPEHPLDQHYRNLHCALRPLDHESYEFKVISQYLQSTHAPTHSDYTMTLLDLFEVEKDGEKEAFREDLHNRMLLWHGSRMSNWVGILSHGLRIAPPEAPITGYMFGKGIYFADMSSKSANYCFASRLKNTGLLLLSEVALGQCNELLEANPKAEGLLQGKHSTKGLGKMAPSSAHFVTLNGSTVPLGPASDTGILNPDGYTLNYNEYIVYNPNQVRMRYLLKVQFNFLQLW

Consider `CC(C)N1CCN(Cc2ccc(-c3[nH]c4cc(F)cc5c4c3CCNC5=O)cc2)CC1`, for which the inhibition worked out at 36.5% in assay [1] and 83.9% in assay [2].

Turning to `CC(C)N1CCN(Cc2cccc(-c3[nH]c4cc(F)cc5c4c3CCNC5=O)c2)CC1`, the inhibition in [1] was found to be 29%; in assay [2] it was 56.6%.

For `Cc1ccc(-c2[nH]c3cc(F)cc4c3c2CCNC4=O)cc1[N+](=O)[O-]`, the inhibition in assay [1] stood at 54.6%; in [2], 93.2%.

With `O=Cc1ccc(-c2[nH]c3cc(F)cc4c3c2CCNC4=O)cc1`, the inhibition amounted to 57.8% in [1] and 93.6% in assay [2].

As for `O=C(O)c1cccc(-c2[nH]c3cc(F)cc4c3c2CCNC4=O)c1`, the inhibition in [1] was 43.3%; in assay [2], 44.9%.

On to `COC(=O)c1ccc(-c2[nH]c3cc(F)cc4c3c2CCNC4=O)cc1`, for which the inhibition in assay [1] is 50.1%; in [2], 83.3%.

For `CC1(N)CCN(Cc2cccc(-c3[nH]c4cc(F)cc5c4c3CCNC5=O)c2)CC1`, the inhibition in [1] came to 21.3%; in [2], 79.2%.

Take `O=C(O)c1ccc(-c2[nH]c3cc(F)cc4c3c2CCNC4=O)cc1`: the values for the inhibition in [1] and in assay [2] were 48.1% and 43.2%, respectively.

As to `CC(C)(C)OC(=O)NC1CCCN(Cc2cccc(-c3[nH]c4cc(F)cc5c4c3CCNC5=O)c2)C1` (stereo not given), the inhibition came to 43.2% in [1] and 55.6% in [2].

`NC1CCCN(Cc2cccc(-c3[nH]c4cc(F)cc5c4c3CCNC5=O)c2)C1` (stereo not given): the results for the inhibition in [1] and in assay [2] were 13.1% and 64.8%, respectively.

Take `CC1(NC(=O)OC(C)(C)C)CCN(Cc2cccc(-c3[nH]c4cc(F)cc5c4c3CCNC5=O)c2)CC1`: the inhibition in [1] amounted to 41.8%; in assay [2] it was 59.7%.

Take `O=C1NCCc2c(-c3ccc(B(O)O)cc3)[nH]c3cc(F)cc1c23`: the inhibition in assay [1] was 42.7%; in [2] it was 67.4%.

As to `CNCc1ccc(-c2[nH]c3cc(F)cc4c3c2CCNC4=O)cc1` [RUCAPARIB], the half-maximal inhibitory concentration (IC50) with A549 is 32200 nM; in the assay on MX1, 6510 nM; with MCF7, 6610 nM. For the same compound, the inhibition result with Mus musculus is “Active”. Besides, the inhibition in assay [1] was 77.6%; in [2] it was 98%.

In the case of `O=C1NCCc2c(-c3ccc(CN4CCN(C(c5ccccc5)c5ccccc5)CC4)cc3)[nH]c3cc(F)cc1c23`, the inhibition in assay [1] came out at 36.8%; in assay [2], 26.5%.

Consider `CC(C)(C)c1ccc(-c2[nH]c3cc(F)cc4c3c2CCNC4=O)cc1`, for which the inhibition amounted to 42.3% in assay [1] and 56.2% in assay [2].

With `COc1ccc(-c2[nH]c3cc(F)cc4c3c2CCNC4=O)cc1`, the inhibition was 49.4% in [1] and 82.8% in assay [2].

For the compound `O=C1NCCc2c(-c3ccc(CN4CCN(C(=O)C5CC5)CC4)cc3)[nH]c3cc(F)cc1c23`, the figures for the inhibition in [1] and in assay [2] were 44.1% and 85%, respectively.

Consider `O=C1NCCc2c(-c3ccc(CN4CCN(CCO)CC4)cc3)[nH]c3cc(F)cc1c23`, for which the IC50 in assay [3] turned out to be 1.54 nM; in assay [4], 6.68 nM. Further, in the assay filed under Homo sapiens, the Ratio IC50 was found to be 4.3. For the same compound, the inhibition in [1] came out at 25.1%; in assay [2], 84.5%.

In the case of `O=C1NCCc2c(-c3cccc(CN4CCC(F)(F)CC4)c3)[nH]c3cc(F)cc1c23`, the results for the inhibition in [1] and in assay [2] were 24.3% and 38.4%, respectively.

In the case of `COc1cccc(-c2[nH]c3cc(F)cc4c3c2CCNC4=O)c1`, the inhibition came to 35.9% in [1] and 72% in assay [2].

On to `O=C1NCCc2c(-c3ccc(CN4CCC(F)(F)CC4)cc3)[nH]c3cc(F)cc1c23`, for which the inhibition came out at 18% in [1] and 68.8% in [2].

`CC1(NC(=O)OC(C)(C)C)CCN(Cc2ccc(-c3[nH]c4cc(F)cc5c4c3CCNC5=O)cc2)CC1`: the figures for the inhibition in [1] and in assay [2] were 40.5% and 87%, respectively.

As for `CC(C)(C)OC(=O)N1CCN(Cc2ccc(-c3[nH]c4cc(F)cc5c4c3CCNC5=O)cc2)CC1`, the inhibition in [1] is 33.8%; in [2], 74.2%.

Consider `O=C1NCCc2c(-c3ccc(CN4CCn5c(nnc5C(F)(F)F)C4)cc3)[nH]c3cc(F)cc1c23`, for which the inhibition worked out at 23.5% in assay [1] and 69.1% in [2].

As for `CN1CCN(Cc2cccc(-c3[nH]c4cc(F)cc5c4c3CCNC5=O)c2)CC1`, the inhibition worked out at 29% in [1] and 61.2% in assay [2].

For the compound `NC1CCCN(Cc2ccc(-c3[nH]c4cc(F)cc5c4c3CCNC5=O)cc2)C1` (stereo not given), the values for the inhibition in assay [1] and in assay [2] were 33.5% and 87.9%, respectively.

Regarding `O=C1NCCc2c(-c3ccc(N4CCOCC4)cc3)[nH]c3cc(F)cc1c23`, the inhibition was 54.2% in assay [1] and 88.9% in assay [2].

As to `NC1CCN(Cc2ccc(-c3[nH]c4cc(F)cc5c4c3CCNC5=O)cc2)CC1`, the IC50 in the assay with A549 is 85900 nM; in [3], 0.41 nM; with MX1, 65400 nM; in the assay on MCF7, 59500 nM; in assay [4] it was 4.21 nM. The inhibition in [1] stood at 63.8%; in [2] it was 95.7%.

Consider `O=C1NCCc2c(-c3ccc(CN4CCCC(F)(F)C4)cc3)[nH]c3cc(F)cc1c23`, for which the results for the inhibition in assay [1] and in assay [2] were 20.5% and 69.3%, respectively.

Regarding `C[C@@H]1CN(Cc2cccc(-c3[nH]c4cc(F)cc5c4c3CCNC5=O)c2)CCN1`, the figures for the inhibition in assay [1] and in [2] were 50.2% and 78.3%, respectively.

As to `C[C@@H]1CN(Cc2ccc(-c3[nH]c4cc(F)cc5c4c3CCNC5=O)cc2)CCN1C(=O)OC(C)(C)C`, the inhibition in assay [1] came out at 20.3%; in assay [2], 31.2%.

Regarding `CC(C)(C)OC(=O)NC1CCN(Cc2cccc(-c3[nH]c4cc(F)cc5c4c3CCNC5=O)c2)CC1`, the inhibition in assay [1] came out at 40.7%; in assay [2], 76.5%.

For `O=C1NCCc2c(-c3ccc(OCc4ccccc4)cc3)[nH]c3cc(F)cc1c23`, the inhibition was found to be 36.4% in [1] and 50.6% in [2].

With `O=C1NCCc2c(-c3ccc([N+](=O)[O-])cc3)[nH]c3cc(F)cc1c23`, the inhibition in [1] was 55.5%; in [2], 88.7%.

As to `CCN(CC)Cc1ccc(-c2[nH]c3cc(F)cc4c3c2CCNC4=O)cc1`, the 50% inhibitory concentration (IC50) in the assay on A549 was 75800 nM; in [3], 0.61 nM; with MX1, 49300 nM; in the assay with MCF7, 80600 nM; in assay [4] it was 11.2 nM. The figures for the inhibition in assay [1] and in assay [2] were 35.2% and 94%, respectively.

`O=C1NCCc2c(-c3cccc(CN4CCn5c(nnc5C(F)(F)F)C4)c3)[nH]c3cc(F)cc1c23`: the inhibition came to 24.4% in assay [1] and 48.4% in [2].

Regarding `O=C1NCCc2c(-c3ccc(N4CCNCC4)cc3)[nH]c3cc(F)cc1c23`, the inhibition in assay [1] was 55.8%; in [2], 83.9%.

With `CC(C)(C)OC(=O)NC1CCN(Cc2ccc(-c3[nH]c4cc(F)cc5c4c3CCNC5=O)cc2)CC1`, the IC50 was determined as 1.17 nM in [3] and 8.04 nM in assay [4]. For the same compound, the Ratio IC50 in the assay filed under Homo sapiens turned out to be 6.9. Besides, the inhibition in assay [1] stood at 42.4%; in [2] it was 82%.

For `O=C1NCCc2c(-c3ccc(CN4CCN(c5ncccn5)CC4)cc3)[nH]c3cc(F)cc1c23`, the concentration for half-maximal inhibition (IC50) in assay [3] came to 1.19 nM; in assay [4], 5.71 nM. In the assay listed under Homo sapiens, the Ratio IC50 was found to be 4.8. The inhibition in assay [1] turned out to be 47%; in [2] it was 93.7%.

Take `Nc1ccc(-c2[nH]c3cc(F)cc4c3c2CCNC4=O)cc1`: the inhibition in [1] came to 46%; in assay [2], 84.5%.

In the case of `Cc1cc(N2CCN(Cc3ccc(-c4[nH]c5cc(F)cc6c5c4CCNC6=O)cc3)CC2)n(-c2ccccc2)n1`, the inhibition in [1] worked out at 29.7%; in assay [2] it was 47.2%.

As for `CC(=O)N1CCN(Cc2ccc(-c3[nH]c4cc(F)cc5c4c3CCNC5=O)cc2)CC1`, the IC50 in assay [3] was 1.31 nM; in assay [4] it was 6.4 nM. The Ratio IC50 in the assay filed under Homo sapiens was 4.9. Moreover, the inhibition in [1] is 28.7%; in assay [2] it was 82.9%.

`CC1(N)CCN(Cc2ccc(-c3[nH]c4cc(F)cc5c4c3CCNC5=O)cc2)CC1`: the inhibition in assay [1] amounted to 45.2%; in assay [2], 89.9%.

On to `CC(C)(C)OC(=O)NC1CCCN(Cc2ccc(-c3[nH]c4cc(F)cc5c4c3CCNC5=O)cc2)C1` (stereo not given), for which the inhibition in assay [1] worked out at 34.8%; in assay [2], 90.1%.

As for `CN1CCN(Cc2ccc(-c3[nH]c4cc(F)cc5c4c3CCNC5=O)cc2)CC1`, the inhibition in [1] came to 42%; in assay [2], 83.1%.

In the case of `CC(=O)N1CCN(Cc2cccc(-c3[nH]c4cc(F)cc5c4c3CCNC5=O)c2)CC1`, the inhibition in assay [1] amounted to 30.4%; in assay [2] it was 49.8%.

For `O=C1NCCc2c(-c3ccc(CN4CCN(c5cccc(C(F)(F)F)c5)CC4)cc3)[nH]c3cc(F)cc1c23`, the inhibition in assay [1] was 17.3%; in assay [2], 22.1%.

In the case of `CCOC(=O)C1CCCN(Cc2ccc(-c3[nH]c4cc(F)cc5c4c3CCNC5=O)cc2)C1` (stereo not given), the figures for the inhibition in assay [1] and in [2] were 36.3% and 86.5%, respectively.

In the case of `N#Cc1ccc(-c2[nH]c3cc(F)cc4c3c2CCNC4=O)cc1`, the inhibition in assay [1] turned out to be 53.4%; in assay [2], 94.1%.

As for `C[C@@H]1CN(Cc2cccc(-c3[nH]c4cc(F)cc5c4c3CCNC5=O)c2)CCN1C(=O)OC(C)(C)C`, the inhibition in [1] was 49.4%; in [2], 16.3%.

`Nc1cccc(-c2[nH]c3cc(F)cc4c3c2CCNC4=O)c1`: the values for the inhibition in assay [1] and in assay [2] were 58.9% and 76.3%, respectively.

On to `O=C1NCCc2c(-c3cccc(CN4CCN(C(=O)C5CC5)CC4)c3)[nH]c3cc(F)cc1c23`, for which the inhibition worked out at 20.7% in [1] and 46.1% in assay [2].

The values above are taken from ChEMBL document CHEMBL5131383, “Structure-based design, synthesis, and evaluation of inhibitors with high selectivity for PARP-1 over PARP-2” (Eur J Med Chem, 2022).
